Literature values as cited in patent US20150299754A1, “STREPTOMYCES MICROFLAVUS STRAINS AND METHODS OF THEIR USE TO CONTROL PLANT DISEASES AND PESTS” (Bayer CropScience LP, priority 2014, published 2015).

Experiments:
[1] = system: parasites on animals, such as pin worm; settings: according to U.S. Pat. No. 3,849,398
[2] = system: gram-positive, gram-negative bacteria and tubercule bacillus; settings: according to U.S. Pat. No. 3,849,398
powdery mildew = settings: according to GB 1 507 193

Compound | parasiticidal action [1] | antibacterial activity [2] | antifungal activity against powdery mildew (powdery mildew)
CNCC(=O)NC(CO)C(=O)NC1C(C(N)=O)OC(n2ccc(N)nc2=O)C(O)C1O (stereo not drawn) [gougerotin] | parasiticidal action | weak antibacterial activity | 
NC(N)=NCC(O)CC(O)(C(=O)O)[C@H]1O[C@@H](n2cc(CO)c(N)nc2=O)C=C[C@@H]1NC(=O)[C@@H](N)CO (stereo partly drawn) [B-98891] |  |  | antifungal activity
